In patent publication US20240041386A1, “MICROCHIP BASED RECORDING OF NEUROVASCULAR ACTIVITY AND BEHAVIOR” (NEUREFLECT, INC., priority 2021, published 2024):

Test system: cortical spreading depression (CSD)
Assay: Optically triggered cortical spreading depression (CSD) threshold in mice with skull-attached microchip
Assay type: in vivo
Settings: Thy1/ChR2 mice under isoflurane anesthesia, compared with the wake state; data not shown
Experimental: Cortical spreading depression (CSD) in freely behaving mice was triggered optically by administering sequential pulses of light with increasing duration until CSD was observed based on OIS. After each light pulse, OIS was monitored for at least 10 minutes for the occurrence of CSD. If CSD occurred, no further stimulus pulses were delivered, whereas if no CSD occurred, then the duration was increased with the subsequent pulse. To trigger CSD under anesthesia, the cage that the animal was housed in was rapidly flushed with 2% isoflurane in a 20/80% O2/N2 gas mixture. After the animal lost consciousness, the isoflurane was reduced to 1.5% to sustain anesthesia. For prolonged experiments a heating pad set at 37° C. was placed under the cage and a small paper blanket was placed over the animal to maintain its core temperature. Breathing pattern and paw color were continuously monitored. Anesthesia was maintained until CBV returned to baseline levels at the end of the CSD. […] After each light pulse, OIS was monitored for a t least 10 minutes for a CSD, If CSD occurred, no further pulses were delivered. If a baseline threshold was well determined, stimulations were started 3-4 steps before that baseline for subsequent CSDs. […] These measurements illustrate that threshold for optically triggering CSD can be quantified based upon the duration of light stimulation required to evoke CSD. […]

## FC(F)OC(Cl)C(F)(F)F (stereo not shown) [isoflurane]
  threshold for triggering CSD (duration of blue light stimulation required to evoke CSD): significantly lower than in the wake state
